The first test in a line: Inhibitory activity of TMP-susceptible Dihydrofolate reductase against […] ATCC 49619.
`CC1c2ccc3c4ccccc4n(C)c3c2CCN1Cc1cnc(N)nc1N` (stereo unspecified) [5-(4,11-Dimethyl-1,2,4,11-tetrahydro-pyrido[4,3-a]carbazol-3-ylmethyl)-pyrimidine-2,4-diamine] gave an IC50 of 10 nM.

The next test can be described thus: Antibacterial activity of TMP-susceptible Dihydrofolate reductase against […] ATCC 49619.
As for `Nc1ncc(CN2CCc3c([nH]c4ccccc34)C2)c(N)n1` [5-(1,3,4,9-Tetrahydro-beta-carbolin-2-ylmethyl)-pyrimidine-2,4-diamine], the IC50 came out at 4 nM.

For the compound `CC1c2ccc3c4ccccc4n(C)c3c2CCN1Cc1cnc(N)nc1N` (stereo unspecified) [5-(4,11-Dimethyl-1,2,4,11-tetrahydro-pyrido[4,3-a]carbazol-3-ylmethyl)-pyrimidine-2,4-diamine], the midpoint of inhibition, the IC50, lay at 4 nM.

On to `CC1c2cc(Cc3ccccc3)c(-c3ccccc3)n2CCN1Cc1cnc(N)nc1N` (stereo unspecified) [5-(7-Benzyl-1-methyl-6-phenyl-3,4-dihydro-1H-pyrrolo[1,2-a]pyrazin-2-ylmethyl)-pyrimidine-2,4-diamine], for which the IC50 was determined as 450 nM.

Compound `CSc1c2n(c3cc(Cl)ccc13)CCN(Cc1cnc(N)nc1N)C2` [5-(7-Chloro-10-methylsulfanyl-3,4-dihydro-1H-pyrazino[1,2-a]indol-2-ylmethyl)-pyrimidine-2,4-diamine] showed an IC50 of 2 nM.

Consider `COc1ccc2c(c1)CN(Cc1cnc(N)nc1N)CC2c1cccc([N+](=O)[O-])c1` (stereo unspecified) [5-[7-Methoxy-4-(3-nitro-phenyl)-3,4-dihydro-1H-isoquinolin-2-ylmethyl]-pyrimidine-2,4-diamine], for which the IC50 turned out to be 6 nM.

By IC50 is commonly meant the midpoint of a concentration-inhibition curve. Lower therefore signals inhibition by little substance.

The values above are taken from BindingDB's records for doi:10.1021/jm020495y (F. Hoffmann-La Roche, 2003).
